For the first assay, the target named is human insulin receptor (Homo sapiens, UniProt P06213). Put plainly: Insulin receptor binding, SPA antibody capture assay (assay (I)). The conditions noted are these: recombinant human insulin receptor - exon 11, A14 Tyr[125I]-human insulin tracer, human insulin = 100%. How it is done:
Insulin Receptor Binding of the Acylated, Single-Chain Insulin
The affinity of the acylated, single-chain insulins for the human insulin receptor can be determined by a SPA assay (Scintillation Proximity Assay) microtiterplate antibody capture assay. SPA-PVT antibody-binding beads, anti-mouse reagent (Amersham Biosciences, Cat No. PRNQ0017) are mixed with 25 ml of binding buffer (100 mM HEPES pH 7.8; 100 mM sodium chloride, 10 mM MgSO4, 0.025% Tween-20). Reagent mix for a single Packard Optiplate (Packard No. 6005190) is composed of 2.4 μl of a 1:5000 diluted purified recombinant human insulin receptor—exon 11, an amount of a stock solution of A14 Tyr[125I]-human insulin corresponding to 5000 cpm per 100 μl of reagent mix, 12 μl of a 1:1000 dilution of F12 antibody, 3 ml of SPA-beads and binding buffer to a total of 12 ml. A total of 100 μl is then added and a dilution series is made from appropriate samples. To the dilution series is then added 100 μl of reagent mix and the samples are incubated for 16 hours while gently shaken. The phases are then separated by centrifugation for 1 min and the plates counted in a Topcounter. The binding data are fitted using the nonlinear regression algorithm in the GraphPad Prism 2.01 (GraphPad Software, San Diego, Calif.).
Sequence of human insulin receptor (P06213 28-746 isoform P06213-2 limits assumed): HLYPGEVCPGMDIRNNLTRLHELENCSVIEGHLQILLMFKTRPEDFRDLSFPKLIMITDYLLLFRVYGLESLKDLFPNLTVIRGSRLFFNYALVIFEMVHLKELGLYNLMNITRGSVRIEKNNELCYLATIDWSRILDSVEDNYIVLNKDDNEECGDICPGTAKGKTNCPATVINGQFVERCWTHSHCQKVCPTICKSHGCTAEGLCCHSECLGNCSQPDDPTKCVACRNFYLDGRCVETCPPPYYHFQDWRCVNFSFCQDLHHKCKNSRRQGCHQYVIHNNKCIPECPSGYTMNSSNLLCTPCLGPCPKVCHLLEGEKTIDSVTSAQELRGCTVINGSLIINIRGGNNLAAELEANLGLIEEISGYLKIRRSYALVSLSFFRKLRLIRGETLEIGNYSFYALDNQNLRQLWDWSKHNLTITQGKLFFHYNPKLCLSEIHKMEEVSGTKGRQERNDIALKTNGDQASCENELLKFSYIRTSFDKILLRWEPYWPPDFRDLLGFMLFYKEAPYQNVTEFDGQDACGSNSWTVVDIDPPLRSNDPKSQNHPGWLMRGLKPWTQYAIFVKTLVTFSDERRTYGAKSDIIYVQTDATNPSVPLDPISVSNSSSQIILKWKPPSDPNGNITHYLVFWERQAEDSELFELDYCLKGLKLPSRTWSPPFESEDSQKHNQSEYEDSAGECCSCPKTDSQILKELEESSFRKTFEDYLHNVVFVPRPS
Sequence of human insulin receptor (P06213 763-1382 partner limits assumed): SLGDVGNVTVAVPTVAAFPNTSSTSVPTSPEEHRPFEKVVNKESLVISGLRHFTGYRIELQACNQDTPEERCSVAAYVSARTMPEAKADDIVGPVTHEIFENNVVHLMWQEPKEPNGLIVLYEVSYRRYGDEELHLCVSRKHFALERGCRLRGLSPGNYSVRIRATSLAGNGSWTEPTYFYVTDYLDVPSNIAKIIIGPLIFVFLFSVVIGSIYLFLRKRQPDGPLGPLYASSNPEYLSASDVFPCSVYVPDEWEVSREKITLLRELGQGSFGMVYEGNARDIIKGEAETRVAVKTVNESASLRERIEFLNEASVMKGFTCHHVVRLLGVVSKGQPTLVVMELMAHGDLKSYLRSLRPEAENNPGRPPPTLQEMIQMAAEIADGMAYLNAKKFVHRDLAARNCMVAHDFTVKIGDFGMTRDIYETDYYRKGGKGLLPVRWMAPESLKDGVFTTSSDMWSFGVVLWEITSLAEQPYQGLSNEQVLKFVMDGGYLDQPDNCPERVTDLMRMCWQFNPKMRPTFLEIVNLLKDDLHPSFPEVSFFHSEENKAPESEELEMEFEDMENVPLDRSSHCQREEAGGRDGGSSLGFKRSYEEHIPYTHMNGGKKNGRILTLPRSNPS
In the case of “B(1-29)-B22K(N(eps)heptadecandioyl-g-L-Glu)-B29H-TGLGSGR-A(1-21)-A18Q-A21G Human insulin [Example 8]”, the “insulin receptor binding relative to that of human insulin” value was 53%.

Consider “B(1-29)-B22K(N(eps)heptadecandioyl)-B29H-TGLGSGR-A(1-21)-A18Q-A21G Human insulin [Example 7]”, for which the “insulin receptor binding relative to that of human insulin” value is given as 119%.

As to “B(1-29)-B22K(N(eps)hexadecandioyl-g-L-Glu-amide)-B29H-TGLGSGR-A(1-21)-A18Q-A21G Human insulin [Example 6]”, the “insulin receptor binding relative to that of human insulin” value came to 105%.

On to “B(1-29)-B22K((eps)hexadecandioyl-gGlu)-B29Q-TGLGSGR-A(1-21)-A18Q-A21G Human insulin [Example 5]”, for which the “insulin receptor binding relative to that of human insulin” value is recorded as 154%.

For “B(1-29)-B22K(N(eps)octadecandioyl)-B29A-VGLSSGQ-A(1-21)-A18Q Human Insulin [Example 2]”, the “insulin receptor binding relative to that of human insulin” value is recorded as 16%.

Turning to “B(1-29)-B22K(N(eps)hexadecandioyl-gGlu)-B29A-VGLSSGQ-A(1-21)-A18Q Human Insulin [Example 3]”, the “insulin receptor binding relative to that of human insulin” value is listed as 64%.

Consider “B(1-29)-B22K((eps)hexadecandioyl-gGlu)-B29H-TGLGSGR-A(1-21)-A18Q-A21G Human insulin [Example 4]”, for which the “insulin receptor binding relative to that of human insulin” value was found to be 46%.

Turning to “B(1-29)-B22K((eps)myristoyl)-B29A-VGLSSGQ-A(1-21)-A18Q Human Insulin [Example 1]”, the “insulin receptor binding relative to that of human insulin” value is given as 46%.

In a further assay the target is purified recombinant human insulin receptor-exon 11 (human) (UniProt P06213). As to the kind of experiment: assay (I): SPA competition, displacement of A14 Tyr[125I]-human insulin from recombinant human insulin receptor; reference human insulin.
Sequence of purified recombinant human insulin receptor-exon 11 (human) (P06213 other isoform, or with tags, fused parts or gaps limits assumed, form in doubt): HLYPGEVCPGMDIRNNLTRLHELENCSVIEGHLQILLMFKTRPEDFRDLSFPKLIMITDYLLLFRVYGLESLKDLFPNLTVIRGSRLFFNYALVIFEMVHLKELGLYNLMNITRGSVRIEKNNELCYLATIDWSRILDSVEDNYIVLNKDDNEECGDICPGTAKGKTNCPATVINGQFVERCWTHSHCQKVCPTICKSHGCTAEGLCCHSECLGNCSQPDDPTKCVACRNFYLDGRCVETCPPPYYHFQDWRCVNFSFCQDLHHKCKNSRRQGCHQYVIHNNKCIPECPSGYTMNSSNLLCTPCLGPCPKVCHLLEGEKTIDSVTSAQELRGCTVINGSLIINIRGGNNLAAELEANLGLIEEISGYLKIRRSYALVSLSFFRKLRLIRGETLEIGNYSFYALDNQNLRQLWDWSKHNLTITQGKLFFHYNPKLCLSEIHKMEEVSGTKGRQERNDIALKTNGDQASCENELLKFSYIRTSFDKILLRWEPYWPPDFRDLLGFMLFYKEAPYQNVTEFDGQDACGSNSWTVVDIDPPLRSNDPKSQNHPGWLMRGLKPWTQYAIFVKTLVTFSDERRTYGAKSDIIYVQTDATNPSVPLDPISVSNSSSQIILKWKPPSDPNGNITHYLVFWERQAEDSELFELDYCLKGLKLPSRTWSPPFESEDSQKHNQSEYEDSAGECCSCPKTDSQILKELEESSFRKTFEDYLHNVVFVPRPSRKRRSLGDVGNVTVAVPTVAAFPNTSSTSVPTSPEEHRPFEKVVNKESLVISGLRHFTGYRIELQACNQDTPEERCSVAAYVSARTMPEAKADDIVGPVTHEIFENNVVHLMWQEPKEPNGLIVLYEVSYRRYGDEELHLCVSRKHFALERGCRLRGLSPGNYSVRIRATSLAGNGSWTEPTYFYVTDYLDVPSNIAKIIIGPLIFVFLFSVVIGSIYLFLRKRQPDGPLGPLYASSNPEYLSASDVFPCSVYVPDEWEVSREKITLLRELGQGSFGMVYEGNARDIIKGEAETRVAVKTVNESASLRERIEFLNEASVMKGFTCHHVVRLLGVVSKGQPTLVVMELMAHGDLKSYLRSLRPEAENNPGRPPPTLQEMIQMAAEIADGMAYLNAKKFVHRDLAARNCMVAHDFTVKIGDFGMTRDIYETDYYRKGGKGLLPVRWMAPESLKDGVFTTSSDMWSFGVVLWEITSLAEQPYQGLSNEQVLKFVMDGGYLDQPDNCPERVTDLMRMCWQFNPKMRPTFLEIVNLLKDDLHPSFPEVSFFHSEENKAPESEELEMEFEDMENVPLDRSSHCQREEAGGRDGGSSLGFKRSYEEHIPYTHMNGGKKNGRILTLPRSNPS
Details: not given
As to “B(1-29)-B22K(N(eps)hexadecandioyl-gGlu)-B29A-VGLSSGQ-A(1-21)-A18Q Human Insulin (from UniProt P01308 25-53; P01308 90-110) (ligand)”, the insulin receptor binding relative to that of human insulin came to 64%.

As for “B(1-29)-B22K(N(eps)hexadecandioyl-g-L-Glu-amide)-B29H-TGLGSGR-A(1-21)-A18Q-A21G Human insulin (from UniProt P01308 25-53; P01308 90-110) (ligand)”, the insulin receptor binding relative to that of human insulin amounted to 105%.

Turning to “B(1-29)-B22K(N(eps)heptadecandioyl-g-L-Glu)-B29H-TGLGSGR-A(1-21)-A18Q-A21G Human insulin (from UniProt P01308 25-53; P01308 90-110) (ligand)”, the insulin receptor binding relative to that of human insulin was 53%.

For “B(1-29)-B22K(N(eps)heptadecandioyl)-B29H-TGLGSGR-A(1-21)-A18Q-A21G Human insulin (from UniProt P01308 25-53; P01308 90-110) (ligand)”, the insulin receptor binding relative to that of human insulin amounted to 119%.

For “B(1-29)-B22K((eps)hexadecandioyl-gGlu)-B29H-TGLGSGR-A(1-21)-A18Q-A21G Human insulin (from UniProt P01308 25-53; P01308 90-110) (ligand)”, the insulin receptor binding relative to that of human insulin is 46%.

Regarding “B(1-29)-B22K((eps)myristoyl)-B29A-VGLSSGQ-A(1-21)-A18Q Human Insulin (from UniProt P01308 25-53; P01308 90-110) (ligand)”, the insulin receptor binding relative to that of human insulin amounted to 46%.

In the case of “B(1-29)-B22K((eps)hexadecandioyl-gGlu)-B29Q-TGLGSGR-A(1-21)-A18Q-A21G Human insulin (from UniProt P01308 25-53; P01308 90-110) (ligand)”, the insulin receptor binding relative to that of human insulin worked out at 154%.

Take “B(1-29)-B22K(N(eps)octadecandioyl)-B29A-VGLSSGQ-A(1-21)-A18Q Human Insulin (from UniProt P01308 25-53; P01308 90-110) (ligand)”: the insulin receptor binding relative to that of human insulin is 16%.

Values taken from patent publication US20090069215A1, “Acylated Single Chain Insulin” (Novo Nordisk A/S, priority 2006, published 2009).
